Measured values as given in patent US11992499B2, “Quinoline derivatives for use in the treatment of inflammation diseases” (ABIVAX, priority 2018, dated 2024).
Entries after “also recorded” stand apart in the source; their conditions may differ. Where two headings read alike, the source gives them in different places.

Tests used:
[1] = test system: STAM model of non-alcoholic steatohepatitis; assay: STAM model of NASH: Alpha-SMA immunostaining; assay type: in vivo, mice; details: for Alpha-SMA-positive area (mean ± SD): n = 8
Description: NASH was induced in 48 male mice by a single subcutaneous injection of 200 μg streptozotocin (STZ, Sigma-Aldrich, USA) solution 2 days after birth and feeding with high fat diet (HFD, 57 kcal % fat, Cat #HFD32, CLEA Japan, Inc., Japan) after 4 weeks of age. Compound A was administered at 3 dose levels of 10, 20 and 40 mg/kg once daily from 6 to 9 weeks of age. Compound B was administered at a dose of 40 mg/kg once daily from 6 to 9 weeks of age. Telmisartan was administered at a dose of 10 mg/kg once daily from 6 to 9 weeks of age. […] (Table 9 herein after)

[2] = test system: STAM model of non-alcoholic steatohepatitis; assay: STAM model of NASH: HE staining and NAFLD Activity score; assay type: in vivo, mice; parameters: key to NAFLD Activity score (mean ± SD): NAFLD Activity score per Kleiner et al. 2005 criteria
Description: (§1) NASH was induced in 48 male mice by a single subcutaneous injection of 200 μg streptozotocin (STZ, Sigma-Aldrich, USA) solution 2 days after birth and feeding with high fat diet (HFD, 57 kcal % fat, Cat #HFD32, CLEA Japan, Inc., Japan) after 4 weeks of age. Compound A was administered at 3 dose levels of 10, 20 and 40 mg/kg once daily from 6 to 9 weeks of age. Compound B was administered at a dose of 40 mg/kg once daily from 6 to 9 weeks of age. Telmisartan was administered at a dose of 10 mg/kg once daily from 6 to 9 weeks of age. For HE staining, sections were cut from paraffin blocks of liver tissue prefixed in Bouin's solution and stained with Lillie-Mayer's Hematoxylin (Muto Pure Chemicals Co., Ltd., Japan) and eosin solution (FUJIFILM Wako Pure Chemical Corporation). NAFLD Activity score (NAS) was calculated according to the criteria of Kleiner (Kleiner D E. et al., Hepatology, 2005; 41:1313). To visualize collagen deposition, Bouin's fixed liver sections were stained using picro-Sirius red solution (Waldeck, Germany). For quantitative analysis of fibrosis area, bright field images of Sirius red-stained sections were captured around the central vein using a digital camera (DFC295; Leica, Germany) at 200-fold magnification, and the positive areas in 5 fields/section were measured using ImageJ software (National Institute of Health, USA).

[3] = test system: STAM model of non-alcoholic steatohepatitis; assay: STAM model of NASH: plasma ALT; assay type: in vivo, mice; details: for Plasma ALT (mean ± SD): n = 8
Description: NASH was induced in 48 male mice by a single subcutaneous injection of 200 μg streptozotocin (STZ, Sigma-Aldrich, USA) solution 2 days after birth and feeding with high fat diet (HFD, 57 kcal % fat, Cat #HFD32, CLEA Japan, Inc., Japan) after 4 weeks of age. Compound A was administered at 3 dose levels of 10, 20 and 40 mg/kg once daily from 6 to 9 weeks of age. Compound B was administered at a dose of 40 mg/kg once daily from 6 to 9 weeks of age. Telmisartan was administered at a dose of 10 mg/kg once daily from 6 to 9 weeks of age. For plasma biochemistry, non-fasting blood was collected in polypropylene tubes with anticoagulant (Novo-Heparin, Mochida Pharmaceutical Co. Ltd., Japan) and centrifuged at 1,000×g for 15 minutes at 4° C. The supernatant was collected and stored at −80° C. until use. Plasma ALT was measured by FUJI DRI-CHEM 7000 (Fujifilm, Japan).

[4] = test system: STAM model of non-alcoholic steatohepatitis; assay: STAM model of NASH: F4/80 immunostaining; assay type: in vivo, mice; details: for F4/80-positive area (mean ± SD): n = 8
Description: (§2) NASH was induced in 48 male mice by a single subcutaneous injection of 200 μg streptozotocin (STZ, Sigma-Aldrich, USA) solution 2 days after birth and feeding with high fat diet (HFD, 57 kcal % fat, Cat #HFD32, CLEA Japan, Inc., Japan) after 4 weeks of age.
(§3) Compound A was administered at 3 dose levels of 10, 20 and 40 mg/kg once daily from 6 to 9 weeks of age. Compound B was administered at a dose of 40 mg/kg once daily from 6 to 9 weeks of age. Telmisartan was administered at a dose of 10 mg/kg once daily from 6 to 9 weeks of age.

[5] = test system: STAM model of non-alcoholic steatohepatitis; assay: STAM model of NASH: liver triglyceride content; assay type: in vivo, mice; details: for Liver triglyceride (mean ± SD): n = 8
Description: as §2, §3
Liver total lipid-extracts were obtained by Folch's method (Folch J. et al., J. Biol. Chem. 1957; 226: 497). Liver samples were homogenized in chloroform-methanol (2:1, v/v) and incubated overnight at room temperature. After washing with chloroform-methanol-water (8:4:3, v/v/v), the extracts were evaporated to dryness, and dissolved in isopropanol. Liver triglyceride content was measured by Triglyceride E-test (FUJIFILM Wako Pure Chemical Corporation, Japan).

[6] = test system: STAM model of non-alcoholic steatohepatitis; assay type: in vivo; details: for Liver weight (mean ± SD) / Liver-to-body weight ratio (mean ± SD): n = 8
From the text: To prepare dosing solution, Compound A and B were weighed and suspended in Vehicle which was composed of 20% of Vehicle-A1 and 80% of Vehicle-A2. Vehicle-A1 was composed of 0.5% (w/v) Carboxymethyl cellulose (CMC) 400-800 centipoises in water for injection+2.5% (w/v) Tween 80. Vehicle-A2 was composed of 0.5% (w/v) Carboxymethyl cellulose (CMC) 400-800 centipoises in water for injection. Telmisartan (Micardis®) was purchased from Boehringer Ingelheim GmbH (Germany) and dissolved in pure water.
as §2
Compound A and B, and Telmisartan were administered orally in a volume of 10 mL/kg.
as §3
C57BL/6 mice (14-day-pregnant female) were obtained from Japan SLC, Inc. (Japan). All animals used in the study were housed and cared for in accordance with the Japanese Pharmacological Society Guidelines for Animal Use.
Group 1: Vehicle Eight NASH mice were orally administered vehicle [20% of Vehicle-A1 and 80% of Vehicle-A2] in a volume of 10 mL/kg once daily from 6 to 9 weeks of age.
Eight NASH mice were orally administered vehicle supplemented with Compound A at a dose of 10 mg/kg once daily from 6 to 9 weeks of age.
Eight NASH mice were orally administered vehicle supplemented with Compound A at a dose of 20 mg/kg once daily from 6 to 9 weeks of age.
Eight NASH mice were orally administered vehicle supplemented with Compound A at a dose of 40 mg/kg once daily from 6 to 9 weeks of age.
Eight NASH mice were orally administered vehicle supplemented with Compound B at a dose of 40 mg/kg once daily from 6 to 9 weeks of age.
Eight NASH mice were orally administered pure water supplemented with Telmisartan at a dose of 10 mg/kg once daily from 6 to 9 weeks of age.
The viability, clinical signs and behavior were monitored daily. Body weight was recorded before the treatment. […] The animals were sacrificed at 9 weeks of age by exsanguination through direct cardiac puncture under isoflurane anesthesia (Pfizer Inc.).

[7] = test system: STAM model of non-alcoholic steatohepatitis; assay: STAM model of NASH: Sirius red staining, fibrosis area; assay type: in vivo, mice; details: for Sirius red-positive area (fibrosis area, mean ± SD): n = 8
Description: as §1

[8] = 40 mg/kg PO QD, 6-9 wks of age (Compound A high, Compound B groups)
[9] = 40 mg/kg PO QD (Compound A high, Compound B groups)
[10] = 40 mg/kg PO QD, 6-9 wks of age (Compound A high, Compound B groups), n = 8
[11] = summary statement, dose not stated
[12] = 40 mg/kg PO QD (Compound B group)
[13] = 10 mg/kg PO QD (Telmisartan group)
[14] = 10 mg/kg PO QD, 6-9 wks of age (Compound A low, Telmisartan groups)
[15] = 10 mg/kg PO QD (Compound A low, Telmisartan groups)
[16] = 10 mg/kg PO QD, 6-9 wks of age (Compound A low, Telmisartan groups), n = 8

## O=C(O)[C@H]1O[C@@H](N(c2ccc(OC(F)(F)F)cc2)c2ccc3cccc(Cl)c3n2)[C@H](O)[C@@H](O)[C@@H]1O [Compound B]
[1]; [8]
  Alpha-SMA-positive area (mean ± SD): 1.17 ± 0.79%
[2]; [9]
  NAS compared with the Vehicle group: tended to decrease; also recorded: decreasing trend
[2]; [10]
  Hepatocyte ballooning score 0 (None), number of mice: 5
  Hepatocyte ballooning score 1 (Few balloon cells), number of mice: 2
  Hepatocyte ballooning score 2 (Many cells/prominent ballooning), number of mice: 1
  Lobular inflammation score 2 (2-4 foci/200×), number of mice: 3
  Lobular inflammation score 3 (>4 foci/200×), number of mice: 5
  NAFLD Activity score (mean ± SD): 3.6 ± 1.2
  Steatosis score 0 (<5%), number of mice: 4
  Steatosis score 1 (5-33%), number of mice: 4
[2]; conclusion of the study
  Overall effect in this NASH model: potential anti-NAS effect
[2]; [11]
  NAS compared with the Vehicle group: decreasing trends
[3]; [9]
  Plasma ALT level compared with the Vehicle group: tended to increase; also recorded: increasing trends
[3]; [8]
  Plasma ALT (mean ± SD): 72 ± 24 U/L
[4]; [9]
  F4/80-positive area compared with the Vehicle group: tended to decrease
[4]; [8]
  F4/80-positive area (mean ± SD): 1.90 ± 0.89%
[5]; [12]
  Liver triglyceride content compared with the Vehicle group: tended to increase; also recorded: increasing trends
[5]; [8]
  Liver triglyceride (mean ± SD): 82.9 ± 32.6 mg/g liver
[6]; [9]
  Mean liver weight compared with the Vehicle group: tended to increase
  Mean liver-to-body weight ratio compared with the Vehicle group: tended to increase
[6]; [8]
  Liver weight (mean ± SD): 1606 ± 227 mg
  Liver-to-body weight ratio (mean ± SD): 8.1 ± 1.1%
[7]; [12]
  Fibrosis area (Sirius red-positive area) compared with the Vehicle group: tended to increase; also recorded: increasing trends
[7]; [8]
  Sirius red-positive area (fibrosis area, mean ± SD): 0.94 ± 0.23%

## CCCc1nc2c(C)cc(-c3nc4ccccc4n3C)cc2n1Cc1ccc(-c2ccccc2C(=O)O)cc1 [Telmisartan, reference compound]
[1]; [13]
  Alpha-SMA-positive area compared with the Vehicle group: tended to decrease
[1]; [14]
  Alpha-SMA-positive area (mean ± SD): 0.83 ± 0.26%
[2]; [15]
  NAS compared with the Vehicle group: significant decrease
[2]; [16]
  Hepatocyte ballooning score 0 (None), number of mice: 7
  Hepatocyte ballooning score 1 (Few balloon cells), number of mice: 1
  Lobular inflammation score 2 (2-4 foci/200×), number of mice: 4
  Lobular inflammation score 3 (>4 foci/200×), number of mice: 4
  NAFLD Activity score (mean ± SD): 2.8 ± 0.7
  Steatosis score 0 (<5%), number of mice: 7
  Steatosis score 1 (5-33%), number of mice: 1
[3]; [15]
  Plasma ALT level compared with the Vehicle group: no significant difference
[3]; [14]
  Plasma ALT (mean ± SD): 56 ± 14 U/L
[4]; [14]
  F4/80-positive area (mean ± SD): 3.03 ± 0.95%
[5]; [13]
  Liver triglyceride content compared with the Vehicle group: tended to decrease; also recorded: decreasing trend
[5]; [14]
  Liver triglyceride (mean ± SD): 41.5 ± 16.9 mg/g liver
[6]; [15]
  Mean liver weight compared with the Vehicle group: significant decrease
  Mean liver-to-body weight ratio compared with the Vehicle group: tended to decrease
[6]; [14]
  Liver weight (mean ± SD): 1115 ± 78 mg
  Liver-to-body weight ratio (mean ± SD): 6.5 ± 0.4%
[7]; [14]
  Sirius red-positive area (fibrosis area, mean ± SD): 0.70 ± 0.13%

## O=C(O)[C@H]1O[C@@H](N(c2ccc(OC(F)(F)F)cc2)c2ccc3cccc(Cl)c3n2)[C@H](O)[C@@H](O)[C@@H]1O [drawing 253]
[2]; [11]
  NAS compared with the Vehicle group: decreasing trend
